# Measurements from patent publication US20240060999A1, “BLOOD COAGULATION INSPECTION METHOD” (FUJIMORI KOGYO CO., LTD, priority 2020, published 2024).
# How the values were obtained:
# whole blood [1] = experiment: ROTEM whole blood coagulation with rabbit brain-derived tissue thromboplastin (TP) + Ca 12 mM (CTI 20 μg/mL, PKSI-527 40 μM where stated); type: cell-based; conditions: for prolongation of blood coagulation by addition of rTM: Ex5-8, TP 0.9 μg/mL+Startem, FRAGMIN 0.2 U/mL or ARIXTRA 0.5 μg/mL instead of heparan sulfate, rTM 20 or 30 nM
# whole blood [2] = experiment: ROTEM whole blood coagulation with dialyzed Dade Innovin (recombinant tissue factor) 0.569 μg/mL + Ca 12 mM + CTI 20 μg/mL + PKSI-527 40 μM; type: cell-based; conditions: Ex28; for CT (clotting time): Innovin 0.569 μg/mL+Ca+CTI+PKSI-527, ARIXTRA 0.5 ug/mL
# Experimental: ROTEM was used to analyze blood coagulation.
# Blood was collected using a blood collection tube containing 3.2% sodium citrate manufactured by Terumo Corporation.
# Blood coagulation was analyzed in the case of having added 4% (final concentration 0.569 μg/mL) of Dade Innovin (recombinant tissue factor: Sysmex Corporation) having being diluted by 50 times after dialysis, calcium chloride (Ca; final concentration 12 mM), heparan sulfate (final concentration 0 or 2 μg/mL), CTI (final concentration 20 μg/mL), PKSI-527 (final concentration 40 μM) without and with a soluble thrombomodulin (rTM: final concentration 30 nM) further having been added, as well as with an APC inhibitory aptamer (HS02-44G; final concentration 1 μM) in addition to 30 nM of soluble thrombomodulin.
# Blood coagulation was analyzed in the case of having added 4% (final concentration 0.569 μg/mL) of 50-fold diluted Dade Innovin (recombinant tissue factor: Sysmex Corporation) after dialysis, calcium chloride (Ca; final concentration 12 mM), low molecular weight heparan (trade name FRAGMIN; Pfizer) (final concentration 0 or 0.2 U/mL), CTI (final concentration 20 μg/mL), and PKSI-527 (final concentration 40 μM) with and without a soluble thrombomodulin (rTM; final concentration 30 nM) further having been added, as well as with an APC inhibitory aptamer (HS02-44G; final concentration 1 μM) in addition to 30 nM soluble thrombomodulin.
# ROTEM was used to analyze coagulation.
# Blood coagulation was analyzed in the case of having added 4% (final concentration 0.569 μg/mL) of 50-fold diluted Dade Innovin (recombinant tissue factor: Sysmex Corporation) after dialysis, calcium chloride (Ca; final concentration 12 mM), ARIXTRA (final concentration 0 or […]), CTI (final concentration 20 μg/mL), and PKSI-527 (final concentration 40 μM), without and with thrombomodulin (rTM; final concentration 30 nM) further having been added, as well as with an APC inhibitory aptamer (HS02-44G; final concentration 1 μM) in addition to soluble thrombomodulin 30 nM.
# [3] = unfractionated heparin 0.1 U/mL
# [4] = Ex19, TP 16.6 μg/mL+Ca+CTI+PKSI-527, unfractionated heparin 0.1 U/mL, no rTM
# [5] = Ex19, TP 16.6 μg/mL+Ca+CTI+PKSI-527, unfractionated heparin 0.1 U/mL, rTM 100 nM
# [6] = Ex19, TP 16.6 μg/mL+Ca+CTI+PKSI-527, unfractionated heparin 0.2 U/mL, no rTM
# [7] = Ex19, TP 16.6 μg/mL+Ca+CTI+PKSI-527, unfractionated heparin 0.2 U/mL, rTM 100 nM
# [8] = Ex19, TP 16.6 μg/mL+Ca+CTI+PKSI-527, unfractionated heparin 0.3 U/mL, no rTM
# [9] = Ex19, TP 16.6 μg/mL+Ca+CTI+PKSI-527, unfractionated heparin 0.3 U/mL, rTM 100 nM
# [10] = Ex20, TP 16.6 μg/mL+Ca+CTI+PKSI-527, ARIXTRA 0.5 μg/mL, no rTM
# [11] = Ex20, TP 16.6 μg/mL+Ca+CTI+PKSI-527, ARIXTRA 0.5 μg/mL, rTM 100 nM
# [12] = Ex20, TP 16.6 μg/mL+Ca+CTI+PKSI-527, ARIXTRA 2.0 μg/mL, no rTM
# [13] = Ex20, TP 16.6 μg/mL+Ca+CTI+PKSI-527, ARIXTRA 2.0 μg/mL, rTM 100 nM
# [14] = Ex20, TP 16.6 μg/mL+Ca+CTI+PKSI-527, ARIXTRA 3.0 μg/mL, no rTM
# [15] = Ex20, TP 16.6 μg/mL+Ca+CTI+PKSI-527, ARIXTRA 3.0 μg/mL, rTM 100 nM
# [16] = Ex20, TP 16.6 μg/mL+Ca+CTI+PKSI-527, ARIXTRA 4.0 μg/mL, no rTM
# [17] = Ex20, TP 16.6 μg/mL+Ca+CTI+PKSI-527, ARIXTRA 4.0 μg/mL, rTM 100 nM
# [18] = Ex20, TP 16.6 μg/mL+Ca+CTI+PKSI-527, ARIXTRA 5.0 μg/mL, no rTM
# [19] = Ex20, TP 16.6 μg/mL+Ca+CTI+PKSI-527, ARIXTRA 5.0 μg/mL, rTM 100 nM
# [20] = Ex21, TP 0.64 μg/mL+Ca+CTI+PKSI-527, ARIXTRA 0.5 μg/mL, no rTM
# [21] = Ex21, TP 0.64 μg/mL+Ca+CTI+PKSI-527, ARIXTRA 0.5 μg/mL, rTM 30 nM
# [22] = Ex22, TP 0.055 μg/mL+Ca+CTI+PKSI-527, ARIXTRA 0.05 μg/mL, no rTM
# [23] = Ex22, TP 0.055 μg/mL+Ca+CTI+PKSI-527, ARIXTRA 0.05 μg/mL, rTM 20 nM
# [24] = Ex22, TP 0.055 μg/mL+Ca+CTI+PKSI-527, ARIXTRA 0.20 μg/mL, no rTM
# [25] = Ex22, TP 0.055 μg/mL+Ca+CTI+PKSI-527, ARIXTRA 0.20 μg/mL, rTM 20 nM
compound,measurement,setting,value
Unfractionated heparin,prolongation of blood coagulation by addition of rTM,whole blood [1]; [3],markedly prolonged
same,CFT (clot formation time),whole blood [1]; [4],98 s
same,CT (clotting time),whole blood [1]; [4],53 s
same,CFT (clot formation time),whole blood [1]; [5],93 s
same,CT (clotting time),whole blood [1]; [5],66 s
same,CFT (clot formation time),whole blood [1]; [6],82.0 s
same,CT (clotting time),whole blood [1]; [6],73 s
same,CFT (clot formation time),whole blood [1]; [7],102 s
same,CT (clotting time),whole blood [1]; [7],89 s
same,CFT (clot formation time),whole blood [1]; [8],86.0 s
same,CT (clotting time),whole blood [1]; [8],69 s
same,CFT (clot formation time),whole blood [1]; [9],161 s
same,CT (clotting time),whole blood [1]; [9],182 s
"CO[C@H]1O[C@H](COS(=O)(=O)O)[C@@H](O[C@@H]2O[C@@H](C(=O)O)[C@@H](O[C@H]3O[C@H](COS(=O)(=O)O)[C@@H](O[C@@H]4O[C@H](C(=O)O)[C@@H](O[C@H]5O[C@H](COS(=O)(=O)O)[C@@H](O)[C@H](O)[C@H]5NS(=O)(=O)O)[C@H](O)[C@H]4O)[C@H](OS(=O)(=O)O)[C@H]3NS(=O)(=O)O)[C@H](O)[C@H]2OS(=O)(=O)O)[C@H](O)[C@H]1NS(=O)(=O)O [ARIXTRA, fondaparinux sodium]",prolongation of blood coagulation by addition of rTM,whole blood [1]; [3],markedly prolonged
same,CT values,"whole blood [1]; Ex20, TP 16.6 μg/mL+Ca+CTI+PKSI-527, ARIXTRA 0, 0.5 μg/mL, no rTM",< 1 min
same,CFT (clot formation time),whole blood [1]; [10],86 s
same,CT (clotting time),whole blood [1]; [10],52 s
same,CFT (clot formation time),whole blood [1]; [11],69 s
same,CT (clotting time),whole blood [1]; [11],68 s
same,CFT (clot formation time),whole blood [1]; [12],64.0 s
same,CT (clotting time),whole blood [1]; [12],64 s
same,CFT (clot formation time),whole blood [1]; [13],61 s
same,CT (clotting time),whole blood [1]; [13],96 s
same,CFT (clot formation time),whole blood [1]; [14],78.0 s
same,CT (clotting time),whole blood [1]; [14],72 s
same,CFT (clot formation time),whole blood [1]; [15],68 s
same,CT (clotting time),whole blood [1]; [15],112 s
same,CFT (clot formation time),whole blood [1]; [16],70.0 s
same,CT (clotting time),whole blood [1]; [16],75 s
same,CFT (clot formation time),whole blood [1]; [17],77 s
same,CT (clotting time),whole blood [1]; [17],118 s
same,CFT (clot formation time),whole blood [1]; [18],77.0 s
same,CT (clotting time),whole blood [1]; [18],78 s
same,CFT (clot formation time),whole blood [1]; [19],105 s
same,CT (clotting time),whole blood [1]; [19],114 s
same,CFT (clot formation time),whole blood [1]; [20],74 s
same,CT (clotting time),whole blood [1]; [20],294 s
same,CFT (clot formation time),whole blood [1]; [21],794 s
same,CT (clotting time),whole blood [1]; [21],581 s
same,CFT (clot formation time),whole blood [1]; [22],145 s
same,CT (clotting time),whole blood [1]; [22],619 s
same,CFT (clot formation time),whole blood [1]; [23],403 s
same,CT (clotting time),whole blood [1]; [23],1074 s
same,CFT (clot formation time),whole blood [1]; [24],232 s
same,CT (clotting time),whole blood [1]; [24],799 s
same,blood clotting time,"whole blood [1]; Ex22, TP 0.055 μg/mL+Ca+CTI+PKSI-527, ARIXTRA 0.2 μg/mL, rTM 20 nM",≥ 1 h
same,CFT (clot formation time),whole blood [1]; [25],No CFT
same,CT (clotting time),whole blood [1]; [25],No CT
same,CT (clotting time),whole blood [2]; no rTM,466 s
same,CT (clotting time),whole blood [2]; rTM 30 nM,996 s
same,CT (clotting time),whole blood [2]; rTM 30 nM+APC inhibitory aptamer 1 μM,474 s
same,anticoagulation ability of the soluble thrombomodulin,"whole blood [2]; addition of ARIXTRA 0.5 μg/mL, rTM 30 nM",markedly enhanced
